The source of these data is ChEMBL document CHEMBL5053549, “Discovery of Potent and Novel Dual PARP/BRD4 Inhibitors for Efficient Treatment of Pancreatic Cancer” (J Med Chem, 2021).

Data set [1] addresses Bromodomain-containing protein 2 (Homo sapiens, UniProt P25440). The experiment in a line: Inhibition of recombinant BRD2 BD2 (unknown origin) incubated for 120 mins by TR-FRET assay.
Data set [2] has as its system SW1990. Briefly: Induction of DNA damage in human SW1990 cells assessed as tail DNA at 1 to 4 uM incubated for 4 days in presence of 3 uM Olaparib by comet assay. Conditions: dose 1-4 µM, time 4.0 day. It is filed as functional, cell-based.
The subject of data set [3] is SW1990. Briefly: Induction of cell cycle arrest in human SW1990 cells assessed as accumulation of cells at S phase at 1 uM incubated for 4 days by propidium iodide staining based flow cytometry (reference value: 29.32%). It counts as functional. The note with it: time 4 day.
Data set [4] relates to Mus musculus. Briefly: Effect on cell cycle progression in human SW1990 cells xenografted in BALB/c mouse assessed as reduction in CCND1 expression at 45 mg/kg, ip after 4 days by Q-PCR analysis. It is filed as functional, organism-based. The note with it: time 4.0 day.
The target of data set [5] is Bromodomain-containing protein 4 (Homo sapiens, UniProt O60885). Briefly: Inhibition of BRD4 expression in human SW1990 cells at 1 uM after 4 days by Q-PCR analysis. It is filed as cell-based. Conditions: time 4.0 day.
Data set [6] concerns the target Bromodomain testis-specific protein (Homo sapiens, UniProt Q58F21). The experiment in a line: Inhibition of recombinant BRDT BD2 (unknown origin) incubated for 120 mins by TR-FRET assay.
The test system of data set [7] is Mus musculus. The experiment in a line: Toxicity in BALB/c mouse xenografted with human SW1990 cells assessed as lung damage at 45 mg/kg, ip administered for 28 consecutive days by H and E staining based […] microscopic analysis. It is filed as organism-based. Conditions: in vivo, 672 h, time 28 day.
Data set [8] has as its system SW1990. Briefly: Induction of autophagy in human SW1990 cells xenografted in BALB/c mouse assessed as decrease in p62 expression at 45 mg/kg, ip after 4 days by Western blot analysis. It counts as functional, organism-based. Conditions: time 4.0 day.
The test system of data set [9] is Mus musculus. Briefly: In vivo inhibition of BRD4 expression in human […] cells xenografted in BALB/c mouse at 45 mg/kg, ip administered for 28 consecutive days by Q-PCR analysis. The note with it: time 28.0 day. It counts as functional, organism-based.
Data set [10] concerns SW1990. The experiment in a line: Induction of autophagy in human SW1990 cells xenografted in BALB/c mouse assessed as increase in beclin1 expression at 45 mg/kg, ip after 4 days by Q-PCR analysis. It counts as functional, organism-based. The note with it: time 4.0 day.
Data set [11] concerns Mus musculus. The experiment in a line: In vivo inhibition of BRD4 expression in human […] cells xenografted in BALB/c mouse at 45 mg/kg, ip administered for 28 consecutive days by immunohistochemical analysis. It counts as functional, organism-based. Conditions: time 28.0 day.
The test system of data set [12] is SW1990. Briefly: Induction of cell cycle arrest in human SW1990 cells assessed as accumulation of cells at S phase at 2 uM incubated for 4 days by propidium iodide staining based flow cytometry (reference value: 29.32%). It counts as functional. The note with it: time 4 day.
Data set [13] relates to Mus musculus. Briefly: Toxicity in BALB/c mouse xenografted with human SW1990 cells assessed as effect on body weight at 45 mg/kg, ip administered for 28 consecutive days. The note with it: in vivo, 672 h, time 28 day. It is filed as organism-based.
Data set [14] has as its system SW1990. Briefly: Effect on cell cycle progression in human SW1990 cells assessed as reduction in PLK1 expression at 1 to 2 uM after 4 days by Q-PCR analysis. It is filed as functional, cell-based. Conditions: dose 1-2 µM, time 4.0 day.
Data set [15] has as its system SW1990. Briefly: Induction of cell cycle arrest in human SW1990 cells assessed as accumulation of cells at G2/M phase at 2 uM incubated for 4 days by propidium iodide staining based flow cytometry (reference value: 5.89%). It counts as functional. The note with it: time 4 day.
Data set [16] deals with Bromodomain-containing protein 3 (Homo sapiens, UniProt Q15059). Briefly: Inhibition of recombinant BRD3 BD2 (unknown origin) incubated for 120 mins by TR-FRET assay.
Chain of Bromodomain-containing protein 3 (Q15059 whole entry): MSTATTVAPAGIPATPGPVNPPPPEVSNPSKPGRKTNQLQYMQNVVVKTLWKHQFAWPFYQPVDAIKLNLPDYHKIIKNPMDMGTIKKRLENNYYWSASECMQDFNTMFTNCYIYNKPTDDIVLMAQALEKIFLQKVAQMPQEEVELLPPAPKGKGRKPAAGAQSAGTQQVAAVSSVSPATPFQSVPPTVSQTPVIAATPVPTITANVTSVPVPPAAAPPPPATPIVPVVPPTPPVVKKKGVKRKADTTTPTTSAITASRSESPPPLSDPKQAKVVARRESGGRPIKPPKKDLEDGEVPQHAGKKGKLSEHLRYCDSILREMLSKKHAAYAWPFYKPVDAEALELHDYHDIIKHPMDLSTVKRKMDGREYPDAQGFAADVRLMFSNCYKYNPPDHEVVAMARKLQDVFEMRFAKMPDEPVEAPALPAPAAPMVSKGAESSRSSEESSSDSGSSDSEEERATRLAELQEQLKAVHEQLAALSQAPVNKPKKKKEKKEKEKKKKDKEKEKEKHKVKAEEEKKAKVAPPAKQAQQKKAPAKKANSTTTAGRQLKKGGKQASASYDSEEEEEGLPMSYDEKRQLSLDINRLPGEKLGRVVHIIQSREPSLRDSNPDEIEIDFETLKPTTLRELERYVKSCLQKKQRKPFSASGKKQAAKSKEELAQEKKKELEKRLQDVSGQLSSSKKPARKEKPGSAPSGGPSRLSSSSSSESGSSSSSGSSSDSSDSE
The test system of data set [17] is SW1990. The experiment in a line: Effect on cell cycle progression in human SW1990 cells assessed as reduction in PLK1 expression at 1 to 2 uM after 4 days by Western blot analysis. It is filed as functional, cell-based. Conditions: dose 1-2 µM, time 4.0 day.
Data set [18] relates to SW1990. Briefly: Induction of apoptosis in human SW1990 cells assessed as late apoptotic cells at 1 uM after 4 days by Annexin V-FITC and propidium iodide staining based flow cytometry (reference value: 6.22%). The note with it: time 4 day. It counts as functional.
Data set [19] deals with Mus musculus. The experiment in a line: Toxicity in BALB/c mouse xenografted with human SW1990 cells assessed as kidney damage at 45 mg/kg, ip administered for 28 consecutive days by H and E staining based […] microscopic analysis. It counts as organism-based. Conditions: in vivo, 672 h, time 28 day.
Data set [20] deals with Mus musculus. The experiment in a line: Effect on cell cycle progression in human SW1990 cells xenografted in BALB/c mouse assessed as reduction in CDK6 expression at 45 mg/kg, ip after 4 days by Q-PCR analysis. It counts as functional, organism-based. Conditions: time 4.0 day.
For data set [21], the system named is Mus musculus. Briefly: In vivo inhibition of PARP1 expression in human […] cells xenografted in BALB/c mouse at 45 mg/kg, ip administered for 28 consecutive days by Q-PCR analysis. It is filed as functional, organism-based. Conditions: time 28.0 day.
Data set [22] deals with SW1990. Briefly: Effect on cell cycle progression in human SW1990 cells assessed as reduction in Olaparib-induced CDK6 expression at 1 uM after 4 days in presence of Olaparib by Q-PCR analysis. The note with it: time 4.0 day. It counts as functional, cell-based.
The subject of data set [23] is SW1990. The experiment in a line: Inhibition of homologous recombinant repair in human SW1990 cells assessed as reduction in FOXM1 expression at 4 uM after 4 days by Q-PCR analysis. The note with it: time 4.0 day. It is filed as functional, cell-based.
Data set [24] relates to SW1990. Briefly: Inhibition of homologous recombinant repair in human SW1990 cells assessed as reduction in c-Myc expression at 4 uM after 4 days by Q-PCR analysis. Conditions: time 4.0 day. It counts as functional, cell-based.
Data set [25] deals with Mus musculus. The experiment in a line: Toxicity in BALB/c mouse xenografted with human SW1990 cells assessed as lung damage at 15 mg/kg, ip administered for 28 consecutive days by H and E staining based […] microscopic analysis. It is filed as organism-based. The note with it: in vivo, 672 h, time 28 day.
The test system of data set [26] is SW1990. The experiment in a line: Induction of autophagy in human SW1990 cells assessed as increase in LC3B expression at 4 uM incubated for 4 days by immunofluorescence assay. It is filed as functional, cell-based. The note with it: time 4.0 day.
In data set [27] the test system is SW1990. The experiment in a line: Induction of apoptosis in human SW1990 cells assessed as late apoptotic cells at 1 uM after 4 days in presence of 3 uM Olaparib by Annexin V-FITC and propidium iodide staining based flow cytometry (reference value: 6.22%). It is filed as functional. Conditions: time 4 day.
The test system of data set [28] is SW1990. Briefly: Induction of DNA damage in human SW1990 cells assessed as tail DNA at 4 uM incubated for 4 days by comet assay. It counts as functional, cell-based. The note with it: time 4.0 day.
Data set [29] has as its system SW1990. The experiment in a line: Induction of DNA damage in human SW1990 cells assessed as increase in gammaH2AX at 1 uM incubated for 4 days in presence of Olaparib by immunofluorescence assay. It counts as functional, cell-based. Conditions: time 4.0 day.
Data set [30] has as its system SW1990. Briefly: Inhibition of homologous recombinant repair in human SW1990 cells assessed as reduction in Olaparib-induced Rad51 expression at 1 uM after 4 days in presence of Olaparib by Q-PCR analysis. It counts as functional, cell-based. The note with it: time 4.0 day.
Data set [31] concerns SW1990. Briefly: Inhibition of homologous recombinant repair in human SW1990 cells assessed as reduction in c-Myc expression at 4 uM after 4 days by Western blot analysis. It counts as functional, cell-based. The note with it: time 4.0 day.
For data set [32], the system named is SW1990. Briefly: Induction of cell cycle arrest in human SW1990 cells assessed as accumulation of cells at G2/M phase at 1 uM incubated for 4 days in presence of 3 uM Olaparib by propidium iodide staining based flow cytometry (reference value: 5.89%). It counts as functional. Conditions: time 4 day.
In data set [33] the test system is Mus musculus. The experiment in a line: In vivo inhibition of BRD4 expression in human SW1900 cells xenografted in BALB/c mouse assessed as reversal of Olaparib-induced BRD4 accumulation at 15 mg/kg, ip administered for 28 consecutive days in presence of 45 mg/kg Olaparib by Q-PCR analysis. It is filed as functional, organism-based. The note with it: time 28.0 day.

Calls of active or inactive are those of the source. No cut-off for these calls is given here.

Chain of Bromodomain-containing protein 2 (P25440 whole entry): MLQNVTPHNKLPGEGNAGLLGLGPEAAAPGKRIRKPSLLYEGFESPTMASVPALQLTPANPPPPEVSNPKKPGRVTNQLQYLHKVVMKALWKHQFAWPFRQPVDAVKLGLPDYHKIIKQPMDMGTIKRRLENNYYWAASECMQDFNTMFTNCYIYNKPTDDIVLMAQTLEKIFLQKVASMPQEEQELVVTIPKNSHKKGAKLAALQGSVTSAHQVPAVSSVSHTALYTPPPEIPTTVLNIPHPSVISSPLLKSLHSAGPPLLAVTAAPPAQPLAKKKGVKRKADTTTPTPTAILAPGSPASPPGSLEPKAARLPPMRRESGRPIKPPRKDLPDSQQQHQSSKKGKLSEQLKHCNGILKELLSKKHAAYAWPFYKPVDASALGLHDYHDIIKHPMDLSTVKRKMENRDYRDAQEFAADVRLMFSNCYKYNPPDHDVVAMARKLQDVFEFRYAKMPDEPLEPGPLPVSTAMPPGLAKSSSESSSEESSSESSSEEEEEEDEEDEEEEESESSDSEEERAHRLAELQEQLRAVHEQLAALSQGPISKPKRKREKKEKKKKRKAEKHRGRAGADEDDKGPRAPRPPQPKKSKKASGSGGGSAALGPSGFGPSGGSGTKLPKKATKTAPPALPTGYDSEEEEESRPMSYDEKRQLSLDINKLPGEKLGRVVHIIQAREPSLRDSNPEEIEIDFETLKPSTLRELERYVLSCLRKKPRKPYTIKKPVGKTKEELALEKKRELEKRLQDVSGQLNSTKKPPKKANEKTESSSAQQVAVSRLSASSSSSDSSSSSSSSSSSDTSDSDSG

Consider `CC[C@@H]1C(=O)N(C)c2cnc(N(C)c3ccc(-c4nc5c(C(N)=O)cccc5[nH]4)cc3OC)nc2N1C1CCCC1`, for which the IC50 in data set [1] amounted to 168 nM; in data set [6] it was 1400 nM; in data set [16], 123 nM. The result with SW1990 [2], in the data set on Mus musculus [4], in the data set with SW1990 [8], in the data set on Mus musculus [9], in the data set on SW1990 [10] and with Mus musculus [11] was Active. Further, the outcome in the data set with SW1990 [14], in the data set with SW1990 [17], in the data set with Mus musculus [20] and in the data set with Mus musculus [21] was Active. Also, the Activity in the data set with SW1990 [3] was 14.74%; with Mus musculus [7], “Non-Toxic”; with SW1990 [12], 9.21%; with Mus musculus [13] it was “Non-Toxic”; with SW1990 [15], 13.22%; in the data set on SW1990 [18], 28.4%. Further, in the data set on Mus musculus [19], the Activity entry was “Non-Toxic”. Besides, the inhibition entry in data set [5] was “Active”.

Consider `Cc1sc2c(c1C)C(c1ccc(Cl)cc1)=N[C@@H](CC(=O)OC(C)(C)C)c1nnc(C)n1-2`, for which the result with SW1990 [22], in the data set on SW1990 [26], in the data set with SW1990 [28], in the data set on SW1990 [29] and in the data set with Mus musculus [33] was Active. In addition, the inhibition entry with SW1990 [23], in the data set with SW1990 [24], with SW1990 [30] and in the data set on SW1990 [31] was “Active” each time. The Activity entry in the data set on Mus musculus [25] is reported as “Non-Toxic”; in the data set on SW1990 [27], 36.2%; with SW1990 [32] it was 9.14%.
